Measurements reported in patent US9173935B2, “Phospholipid drug analogs” (Telormedix SA, priority 2010, dated 2015).
Like-named read-outs stand apart in the source and are kept apart here.

Key:
[1] = tested on: human PBMCs; test: IL-6 secretion in human PBMCs, two batches of Compound A and SC12; format: cell-based; conditions: 24 h, 4 doses
Description: PBMCs were purified from two donors and plated into 96 well plates at 2×10^5 cells/well in RPMI media including human 2% heat inactivated AB serum, glutamine, Pen-strep and R-mercapto-ethanol. The cells were treated with TLR7 agonists for 24 h in 4 doses. The conditioned media was removed for ELISA analyses for IL-6, and the EC50 value determined for each compound and each batch.
All compounds were tested in four concentrations (10-1-0.1-0.01 micromolar).
Concentrations of IL-6 were determined by ELISA from R&D Systems using the Microsoft Excel software. The results were analyzed in Graph Pad Prism in order to prepare dose-response curves, and for determination of EC50 values.

[2] = Plasma stability and metabolic profiling, first experiment, human plasma; format: in vitro ADME
Description: (§1) A 10 μl of MeOH was added to improve solubility. […] The supernatant fractions were analyzed by LC/MS/MS. […] Percent loss of substrate in incubations was determined to estimate the in vitro half life of the test compound. […] Assignment of the structures was done by comparison of the MS/MS analysis of the spectra with the parent spectrum.

[3] = Plasma stability, second experiment, human plasma; conditions: human, plasma
Description: Second experiment: Test compounds (5 mM in DMSO) were diluted at the final concentration of 250 μM with ACN-MeOH 1:1.
Human plasma (1.180 ml) was spiked with 20 μl of 250 μM solution of the compound (4.16 μM final concentration) and aliquots of 50 μl volume were taken at 0, 15, 30, 60, 120 min and 5 hrs, and immediately quenched with 200 μl of a solution of Verapamil 250 ng/ml (internal standard, I.S.) in ACN:MeOH 95:5. Samples were then centrifuged for 20 min at 3000 rpm at 10° C. and analyzed as reported below. […] The supernatant fractions were analyzed by LC/MS/MS. Zero-time incubations were used as 100% values.
Stability was calculated as percentage remaining of the area ratio compound/I.S. at each time point vs. area ratio compound/I.S. at time 0 min.

[4] = Storage stability by HPLC (solid or chloroform solution; temperature, light); format: physicochemical; conditions: room temperature, natural light
Description: At this point, a stability study was conducted on batch CH730/16/8g.
The samples were analyzed at t=0 and after 20 days.

[5] = tested on: recombinant protein antigens from Plasmodium falciparum and Mycobacterium ulcerans; test: Pilot immunization study with adjuvanted protein antigens; format: in vivo, mice; conditions: three s.c. immunizations, 10 nMol adjuvant
Description: A pilot immunization study was conducted using Compound A and SC12 adjuvanted protein antigens. The immunization experiments were performed with two recombinant proteins expressed in E. coli. One antigen was derived from the malaria parasite Plasmodium falciparum and the other one from Mycobacterium ulcerans, which cause the ulcerative skin disease Buruli ulcer.

[6] = tested on: PBMCs; test: IL-6 and TNF-alpha secretion in PBMCs from three donors (ELISA); format: cell-based, human; conditions: read-out: EC50 values, IL-6 secretion
Description: EC50 values were determined for control and each drug candidate for IL-6 and TNF-alpha secretion. […] The cells were treated with TLR7 agonists for 24 hours in 7 doses. The conditioned media was removed for ELISA analyses for IL-6 and TNF-alpha, and cell survival determined by the XTT method according to the protocol from the supplier. […] Concentrations of IL-6 and TNF-alpha were determined by ELISA from R&D Systems using the Microsoft Excel Software. The results were analyzed in Graph Pad Prism in order to prepare dose-response curves, and for determination of EC50 values.

[7] = Plasma stability, first experiment, minipig plasma; format: in vitro ADME
Description: (§2) A 10 μl of MeOH was added to improve solubility. […] The supernatant fractions were analyzed by LC/MS/MS. […] Percent loss of substrate in incubations was determined to estimate the in vitro half life of the test compound.

[8] = Plasma stability and metabolic profiling, first experiment, rabbit plasma; format: in vitro ADME
Description: as §1

[9] = Solubility, method of European Pharmacopoeia 6.0; format: physicochemical
Description: The method reported in the European Pharmacopoeia 6.0 was used.
Batch CH730/16/8g was tested according to the method described in E. Ph: DMSO was added in 0.1 mL portions to 103.7 mg of product and the suspension was shaken with a Vortex instrument for 3 min after each addition. […] The batches CH730/16/8c, CH730/16/8g and CH730/23/8e were then tested stirring each suspension for a longer time; 100 mg of each batch dissolved completely in 0.2 mL of DMSO after stirring for 30 minutes.

[10] = tested on: RAW.264 cells; test: Intracellular uptake in RAW.264 cells (LC-MS); format: cell-based; conditions: 10 microM
Description: 5×10^6 RAW.264 cells were adhered overnight in 10 cm tissue culture dishes. […] […] Supernatant (2 ml) and cells (pellets) were collected by trypsinization and frozen at […] for subsequent analysis by LC-MS.

[11] = Plasma stability, first experiment, rat plasma; format: in vitro ADME
Description: as §2

## CCCCCCCC/C=C\CCCCCCCC(=O)OCC(COP(=O)(O)OCCNC(=O)c1ccc(Cn2c(=O)[nH]c3c(N)nc(OCCOC)nc32)cc1)OC(=O)CCCCCCC/C=C\CCCCCCCC (stereo not shown) [Compound A, 2-(4-((6-amino-2-(2-methoxyethoxy)-8-oxo-7H-purin-9(8H)-yl)methyl)benzamido)ethyl 2,3-bis(oleoyloxy)propyl phosphate]
[1]; Donor 1, listed as Compound A new 20289
  EC50: 721 nM
[1]; Donor 1, listed as Compound A old Ch730/25/8
  EC50: 734 nM
[1]; Donor 2, listed as Compound A new 20289
  EC50: 521 nM
[1]; Donor 2, listed as Compound A old Ch730/25/8
  EC50: 392 nM
[2]; 60 and 300 min, 50 μM
  Metabolites found: two of them
[2]; first experiment
  Plasma stability classification: unstable
[2]; first experiment, 0 min
  % Remaining: 100%
[2]; first experiment, 15 min
  % Remaining: 99.7 (*) %
[2]; first experiment, 30 min
  % Remaining: 40.4 ± 15.5%
[2]; first experiment, 60 min
  % Remaining: 36.1 ± 7.6%
[2]; first experiment, 120 min
  % Remaining: 17.4 ± 2.6%
[2]; first experiment, 300 min
  % Remaining: 7.8 ± 3.3%
[3]; 0 h
  % Remaining: 100%
[3]; 0.25 h
  % Remaining: 100.6 ± 14.5%
[3]; 0.5 h
  % Remaining: 90.3 ± 13.3%
[3]; 2 h
  % Remaining: 69.8 ± 16.8%
[4]; retest 12 Jun. 2009 (test 20 May 2009)
  Purity (HPLC): Purity: 67.2%
[4]; retest 16 Jun. 2009 (test 10 Jun. 2009)
  Purity (HPLC): Purity: 44.8%
[4]; retest 17 Jun. 2009 (test 20 May 2009)
  Purity (HPLC): Purity: 58.9%
[4]; retest 18 Jun. 2009 (test 11 Jun. 2009)
  Purity (HPLC): Purity: 71.5%
[4]; test date 10 Jun. 2009
  Purity (HPLC): Purity: 57.5%
[4]; test date 11 Jun. 2009
  Purity (HPLC): Purity: 81.4%
[4]; test date 20 May 2009
  Purity (HPLC): Purity: 89.6%
[5]
  Local side effects (swelling, ulcerations): No local side effects
[6]; D1, first experiments on three donors
  EC50: 460 nM
[6]; D2, first experiments on three donors
  EC50: 740 nM
[6]; D3, first experiments on three donors
  EC50: 255 nM
[7]
  Plasma stability classification: unstable
[7]; 0 min
  % Remaining: 100%
[7]; 15 min
  % Remaining: 102.4 ± 3.3%
[7]; 30 min
  % Remaining: 73.3 ± 5.0%
[7]; 60 min
  % Remaining: 78.6 ± 2.9%
[7]; 120 min
  % Remaining: 33.7 ± 2.3%
[7]; 300 min
  % Remaining: 10.8 ± 0.3%
[8]
  Plasma stability classification: unstable
[8]; 0 min
  % Remaining: 100%
[8]; 30 and 120 min, 50 μM
  Metabolites found: Three metabolites
[8]; 15 min
  % Remaining: 38.7 ± 3.4%
[8]; 30 min
  % Remaining: 10.2 ± 1.0%
[8]; 60 min
  % Remaining: 7.4 ± 0.1%
[8]; 120 min
  % Remaining: 4.4 ± 0.7%
[8]; 300 min
  % Remaining: 1.9 ± 0.1%
[9]
  Solubility in DMSO: soluble
  Solubility in acetonitrile: not soluble
  Solubility in water: not soluble
[10]; incubation 1 hours
  Intracellular Concentration: 5.50 % of total
[10]; incubation 6 hours
  Intracellular Concentration: 4.27 % of total
[10]; incubation 16 hours
  Intracellular Concentration: 1.53 % of total
[11]
  Plasma stability classification: unstable
[11]; 0 min
  % Remaining: 100%
[11]; 15 min
  % Remaining: 73.8 ± 4.5%
[11]; 30 min
  % Remaining: 67.1 ± 8.8%
[11]; 60 min
  % Remaining: 25.2 ± 0.5%
[11]; 120 min
  % Remaining: 21.4 ± 1.9%
[11]; 300 min
  % Remaining: 15.3 ± 1.0%

## COc1cc(N)c(Cl)cc1C(=O)OCCN1CCCCC1 [Compound M7319, 2-Piperidinoethyl 4-amino-5-chloro-2-methoxybenzoate, reference compound]
[3]; 0 h, 4.16 μM
  % Remaining: 100%
[3]; 1 h, 4.16 μM
  % Remaining: 23.3 ± 1.4%
[3]; 5 h, 4.16 μM
  % Remaining: 0.01 ± 0.01%
